# Source: patent US7767659B2, “Synthesis of naturally occurring ecteinascidins and related compounds” (Pharma Mar, S.A., priority 2002, dated 2010)
# Legend:
# K-562 = assay: Inhibition of cells growth by colorimetric assay (SRB); conditions: Homo sapiens, K562, 48 h; for GI50: read-out: K562 GI50; for CC50: read-out: K562 LC50; for IC (TGI): read-out: K562 TGI
# Procedure, shortened: (§1)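 Colorimetric SRB read (490 nm) on triplicate wells after 48 h at 37 °C, 5% CO2. Dose range 10 to 10^−8 μg/ml; 5×10^3 cells/well pre-attached 18 h.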
# IGROV-1 = assay: as above; conditions: Homo sapiens, IGROV-1, 48 h; for GI50: read-out: IGROV GI50; for CC50: read-out: IGROV LC50; for IC (TGI): read-out: IGROV TGI
# Procedure, shortened: as §1
# HeLa = assay: as above; conditions: Homo sapiens, HeLa, 48 h; for GI50: read-out: HELA GI50; for CC50: read-out: HELA LC50; for IC (TGI): read-out: HELA TGI
# Procedure, shortened: as §1
# SK-BR-3 = assay: as above; conditions: Homo sapiens, SK-BR-3, 48 h; for GI50: read-out: SK-BR3 GI50; for CC50: read-out: SK-BR3 LC50; for IC (TGI): read-out: SK-BR3 TGI
# Procedure, shortened: as §1
# LoVo-Dox = assay: as above; conditions: Homo sapiens, 48 h; for GI50: read-out: LOVO-DOX GI50; for CC50: read-out: LOVO-DOX LC50; for IC (TGI): read-out: LOVO-DOX TGI
# Procedure, shortened: as §1
# PANC-1 = assay: as above; conditions: Homo sapiens, PANC-1, 48 h; for GI50: read-out: PANC-1 GI50; for CC50: read-out: PANC-1 LC50; for IC (TGI): read-out: PANC-1 TGI
# Procedure, shortened: as §1
# HeLa-APL = assay: as above; conditions: Homo sapiens, 48 h; for GI50: read-out: HELA-APL GI50; for CC50: read-out: HELA-APL LC50; for IC (TGI): read-out: HELA-APL TGI
# Procedure, shortened: as §1
# SK-MEL-28 = assay: as above; conditions: Homo sapiens, SK-MEL-28, 48 h; for GI50: read-out: MEL-28 GI50; for CC50: read-out: MEL-28 LC50; for IC (TGI): read-out: MEL-28 TGI
# Procedure, shortened: as §1
# LNCaP = assay: as above; conditions: Homo sapiens, LNCaP, 48 h; for GI50: read-out: LNCAP GI50; for CC50: read-out: LNCAP LC50; for IC (TGI): read-out: LNCAP TGI
# Procedure, shortened: as §1
# DU-145 = assay: as above; conditions: Homo sapiens, DU-145, 48 h; for GI50: read-out: DU145 GI50; for CC50: read-out: DU145 LC50; for IC (TGI): read-out: DU145 TGI
# Procedure, shortened: as §1
# IGROV-ET = assay: as above; conditions: Homo sapiens, 48 h; for GI50: read-out: IGROV-ET GI50; for CC50: read-out: IGROV-ET LC50; for IC (TGI): read-out: IGROV-ET TGI
# Procedure, shortened: as §1
# LoVo = assay: cells; conditions: Homo sapiens, LoVo, 48 h; for GI50: read-out: LOVO GI50; for CC50: read-out: LOVO LC50; for IC (TGI): read-out: LOVO TGI
# Procedure, shortened: as §1
# A-549 = assay: cells; conditions: Homo sapiens, A549, 48 h; for GI50: read-out: A549 GI50; for CC50: read-out: A549 LC50; for IC (TGI): read-out: A549 TGI
# Procedure, shortened: as §1
# HT-29 = assay: cells; conditions: Homo sapiens, HT-29, 48 h; for GI50: read-out: HT29 GI50; for CC50: read-out: HT29 LC50; for IC (TGI): read-out: HT29 TGI
# Procedure, shortened: as §1
smiles,measurement,setting,value
COc1c(C)cc2c(c1O)[C@H]1N[C@@H](C2)[C@H](O)N2C1[C@@H]1SCC(=O)C(=O)OC[C@H]2c2c3c(c(C)c(OC(C)=O)c21)OCO3 (stereo partly drawn) [compound 43],GI50,K-562,3.11 nM
same,CC50,K-562,895 nM
same,IC (TGI),K-562,13.8 nM
same,GI50,IGROV-1,10.6 nM
same,CC50,IGROV-1,384 nM
same,IC (TGI),IGROV-1,49.6 nM
same,GI50,HeLa,9.39 nM
same,CC50,HeLa,145 nM
same,IC (TGI),HeLa,39.9 nM
same,GI50,SK-BR-3,5.83 nM
same,CC50,SK-BR-3,164 nM
same,IC (TGI),SK-BR-3,24.2 nM
same,GI50,LoVo-Dox,423 nM
same,CC50,LoVo-Dox,16700 nM
same,IC (TGI),LoVo-Dox,1150 nM
same,GI50,PANC-1,22.9 nM
same,CC50,PANC-1,2150 nM
same,IC (TGI),PANC-1,82.7 nM
same,GI50,HeLa-APL,24.1 nM
same,CC50,HeLa-APL,423 nM
same,IC (TGI),HeLa-APL,73.2 nM
same,GI50,SK-MEL-28,9.09 nM
same,CC50,SK-MEL-28,91 nM
same,IC (TGI),SK-MEL-28,32.7 nM
same,GI50,LNCaP,6.58 nM
same,CC50,LNCaP,88.7 nM
same,IC (TGI),LNCaP,20.2 nM
same,GI50,DU-145,13.6 nM
same,CC50,DU-145,2920 nM
same,IC (TGI),DU-145,67 nM
same,GI50,IGROV-ET,68.5 nM
same,CC50,IGROV-ET,5800 nM
same,IC (TGI),IGROV-ET,369 nM
same,GI50,LoVo,31.2 nM
same,CC50,LoVo,16700 nM
same,IC (TGI),LoVo,86.7 nM
same,GI50,A-549,26.1 nM
same,CC50,A-549,148 nM
same,IC (TGI),A-549,62.1 nM
same,GI50,HT-29,24.2 nM
same,CC50,HT-29,16700 nM
same,IC (TGI),HT-29,190 nM
C=CCN1[C@@H]2c3c(cc(C)c(OC)c3O)C[C@H]1[C@H](C#N)N1C2[C@@H]2SC[C@]3(NCCc4cc(OC(=O)OC(C)(C)C)c(OC)cc43)C(=O)OC[C@H]1c1c3c(c(C)c(OC(C)=O)c12)OCO3 (stereo partly drawn) [compound 44],GI50,K-562,7.97 nM
same,CC50,K-562,11100 nM
same,IC (TGI),K-562,77.9 nM
same,GI50,IGROV-1,32.6 nM
same,CC50,IGROV-1,11100 nM
same,IC (TGI),IGROV-1,78 nM
same,GI50,HeLa,20.2 nM
same,CC50,HeLa,87.5 nM
same,IC (TGI),HeLa,42 nM
same,GI50,SK-BR-3,3.27 nM
same,CC50,SK-BR-3,76.1 nM
same,IC (TGI),SK-BR-3,11.9 nM
same,GI50,LoVo-Dox,297 nM
same,CC50,LoVo-Dox,11100 nM
same,IC (TGI),LoVo-Dox,919 nM
same,GI50,PANC-1,75.2 nM
same,CC50,PANC-1,11100 nM
same,IC (TGI),PANC-1,344 nM
same,GI50,HeLa-APL,25 nM
same,CC50,HeLa-APL,352 nM
same,IC (TGI),HeLa-APL,59.6 nM
same,GI50,SK-MEL-28,23.4 nM
same,CC50,SK-MEL-28,90.1 nM
same,IC (TGI),SK-MEL-28,45.9 nM
same,GI50,LNCaP,4.53 nM
same,CC50,LNCaP,48 nM
same,IC (TGI),LNCaP,20.4 nM
same,GI50,DU-145,23.4 nM
same,CC50,DU-145,11100 nM
same,IC (TGI),DU-145,71.9 nM
same,GI50,IGROV-ET,49.2 nM
same,CC50,IGROV-ET,11100 nM
same,IC (TGI),IGROV-ET,443 nM
same,GI50,LoVo,33.9 nM
same,CC50,LoVo,11100 nM
same,IC (TGI),LoVo,143 nM
same,GI50,A-549,27.4 nM
same,CC50,A-549,470 nM
same,IC (TGI),A-549,56.7 nM
same,GI50,HT-29,38.8 nM
same,CC50,HT-29,11100 nM
same,IC (TGI),HT-29,1540 nM
C=CCN1[C@@H]2c3c(cc(C)c(OC)c3OC(=O)OC(C)(C)C)C[C@H]1[C@H](C#N)N1C2[C@@H]2SC[C@]3(NCCc4cc(OC(=O)OC(C)(C)C)c(OC)cc43)C(=O)OC[C@H]1c1c3c(c(C)c(OC(C)=O)c12)OCO3 (stereo partly drawn) [compound 45],GI50,K-562,17.6 nM
same,CC50,K-562,10000 nM
same,IC (TGI),K-562,150 nM
same,GI50,IGROV-1,56.9 nM
same,CC50,IGROV-1,10000 nM
same,IC (TGI),IGROV-1,392 nM
same,GI50,HeLa,16.4 nM
same,CC50,HeLa,79.7 nM
same,IC (TGI),HeLa,36.2 nM
same,GI50,SK-BR-3,2.83 nM
same,CC50,SK-BR-3,133 nM
same,IC (TGI),SK-BR-3,7.56 nM
same,GI50,LoVo-Dox,479 nM
same,CC50,LoVo-Dox,10000 nM
same,IC (TGI),LoVo-Dox,3140 nM
same,GI50,PANC-1,229 nM
same,CC50,PANC-1,10000 nM
same,IC (TGI),PANC-1,1240 nM
same,GI50,HeLa-APL,28.4 nM
same,CC50,HeLa-APL,783 nM
same,IC (TGI),HeLa-APL,121 nM
same,GI50,SK-MEL-28,117 nM
same,CC50,SK-MEL-28,689 nM
same,IC (TGI),SK-MEL-28,285 nM
same,GI50,LNCaP,3.83 nM
same,CC50,LNCaP,51.5 nM
same,IC (TGI),LNCaP,17.3 nM
same,GI50,DU-145,35.9 nM
same,CC50,DU-145,10000 nM
same,IC (TGI),DU-145,103 nM
same,GI50,IGROV-ET,86.5 nM
same,CC50,IGROV-ET,10000 nM
same,IC (TGI),IGROV-ET,497 nM
same,GI50,LoVo,130 nM
same,CC50,LoVo,614 nM
same,IC (TGI),LoVo,283 nM
same,GI50,A-549,162 nM
same,CC50,A-549,1500 nM
same,IC (TGI),A-549,413 nM
same,GI50,HT-29,83.6 nM
same,CC50,HT-29,10000 nM
same,IC (TGI),HT-29,1410 nM
